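Tested at 5 concentrations; 48 h exposure; 96-well plates; endpoints linearly interpolated, else capped at highest concentration. GI50 is the concentration that inhibits growth by half. TGI marks complete inhibition of growth.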
Assays:
Test in all cases: growth of human tumour cells (NCI), 48 h
[1] = tested on: UO-31 renal
[2] = tested on: SK-MEL-2 melanoma
[3] = tested on: LOX IMVI melanoma
[4] = tested on: SF-268 CNS
[5] = tested on: HT29 colon
[6] = tested on: OVCAR-3 ovarian
[7] = tested on: HOP-92 NSCLC
[8] = tested on: OVCAR-4 ovarian
[9] = tested on: OVCAR-8 ovarian
[10] = tested on: SNB-75 CNS

In the case of COC1CC(OC2OC(CO)C(O)C(O)C2O)/C(=C\C#N)C(O)C1OC (stereo not drawn), the TGI [1] is reported as > 100 µM, the TGI [2] is reported as > 100 µM and the TGI [3] is reported as > 100 µM. The TGI [4] was > 100 µM, the TGI [5] was > 100 µM and the TGI [6] was > 100 µM. The TGI [7] was > 100 µM, the TGI [8] was > 100 µM and the TGI [9] was > 100 µM.
CC1CN(CCO)CC(C)O1 (stereo not drawn) was tested, and the TGI [1] was > 100 µM, the TGI [10] was > 100 µM and the TGI [2] was > 100 µM. For the same molecule, the TGI [4] was > 100 µM, the TGI [5] was > 100 µM and the TGI [6] was > 100 µM. The TGI [7] was > 100 µM, the TGI [8] was > 100 µM and the TGI [9] was > 100 µM.
CC(C)NC(=O)OCc1nnn2c1C(OC(=O)NC(C)C)CC2 (stereo not drawn) was tested, and the TGI [1] was > 100 µM, the TGI [10] was > 100 µM and the TGI [2] was > 100 µM. For the same molecule, the TGI [5] was > 100 µM, the TGI [6] was > 100 µM and the TGI [7] was > 100 µM. The TGI [8] was > 100 µM and the TGI [9] was > 100 µM.
CC(C)c1ccc2c(c1)CCC1C(C)(C)[C@@H](O)CC[C@]21C (stereo partly drawn) was tested, and the TGI [1] was > 100 µM, the TGI [10] was 55.4 µM and the TGI [3] was 28.8 µM. The TGI [4] was > 100 µM, the TGI [5] was 30 µM and the TGI [6] was > 100 µM. For the same molecule, the TGI [7] was 52.8 µM, the TGI [8] was > 100 µM and the TGI [9] was > 100 µM.
With COC(=O)C(=O)C(C#N)c1cccc2ccccc12 (stereo not drawn) the TGI [1] was > 100 µM, the TGI [10] was > 100 µM and the TGI [3] was > 100 µM. The TGI [4] was > 100 µM, the TGI [5] was > 100 µM and the TGI [6] was > 100 µM. The TGI [7] was > 100 µM, the TGI [8] was > 100 µM and the TGI [9] was > 100 µM.
In the case of c1ccc([CH2][Sn]([CH2]c2ccccc2)([S]c2cccc3cccnc23)[S]c2cccc3cccnc23)cc1, the GI50 [1] is reported as 0.187 µM, the TGI [1] is reported as 0.399 µM and the GI50 [10] is reported as 0.749 µM. The TGI [10] was 2.02 µM, the GI50 [3] was 0.215 µM and the TGI [3] was 0.442 µM. The GI50 [4] was 0.489 µM, the TGI [4] was 2.3 µM and the GI50 [5] was 0.175 µM. The TGI [5] was 0.39 µM, the GI50 [6] was 0.136 µM and the TGI [6] was 0.383 µM. For the same molecule, the GI50 [8] was 0.172 µM, the TGI [8] was 0.422 µM and the GI50 [9] was 0.361 µM. The TGI [9] was 1.4 µM.
For Cc1ccc(S(=O)(=O)NCCCN(CCCNS(=O)(=O)c2ccc(C)cc2)S(=O)(=O)c2ccc(C)cc2)cc1, the TGI [1] was > 100 µM, the TGI [10] was > 100 µM and the TGI [3] was > 100 µM. The TGI [4] was > 100 µM, the TGI [6] was > 100 µM and the TGI [9] was > 100 µM.
O=c1[nH]nc(-c2ccccc2)c(-c2ccccc2)c1-n1nc(-c2ccccc2)c2ccccc2c1=O was tested, and the TGI [1] was > 100 µM, the TGI [10] was > 100 µM and the TGI [2] was > 100 µM. The TGI [4] was > 100 µM, the TGI [5] was > 100 µM and the TGI [6] was > 100 µM. For the same molecule, the TGI [7] was > 100 µM, the TGI [8] was > 100 µM and the TGI [9] was > 100 µM.
COc1ccccc1/C=C1\COc2ccc(O)c(O)c2C1=O gave a GI50 [1] of 1.04 µM, a TGI [1] of 2.24 µM and a GI50 [2] of 2.72 µM. The TGI [2] was 8.67 µM, the GI50 [3] was 1.26 µM and the TGI [3] was 2.66 µM. For the same molecule, the GI50 [4] was 2.22 µM, the TGI [4] was 8.42 µM and the GI50 [5] was 2.77 µM. It also gave a TGI [5] of 7.78 µM, a GI50 [6] of 0.834 µM and a TGI [6] of 6.68 µM. The GI50 [7] was 2.98 µM, the TGI [7] was 20.8 µM and the GI50 [8] was 1.86 µM. The TGI [8] was 9.55 µM, the GI50 [9] was 2.38 µM and the TGI [9] was > 100 µM.
In the case of COc1ccc([C@H]2c3cc(OC)c(OC)cc3C=C(C=O)C2CO)cc1OC (stereo partly drawn), the GI50 [1] is reported as 3.6 µM, the TGI [1] is reported as > 100 µM and the GI50 [3] is reported as 7.44 µM. The TGI [3] was > 100 µM, the GI50 [4] was 4.74 µM and the TGI [4] was > 100 µM. The GI50 [6] was 2.09 µM, the TGI [6] was 4.87 µM and the GI50 [7] was > 100 µM. The TGI [7] was > 100 µM, the GI50 [8] was 7.94 µM and the TGI [8] was > 100 µM. For the same molecule, the GI50 [9] was 6.9 µM and the TGI [9] was > 100 µM.
Clc1ccc(Cl)c(N/N=C\c2c[nH]c3ccccc23)c1 was tested, and the GI50 [1] was 3.7 µM, the TGI [1] was 18.4 µM and the GI50 [2] was 13.1 µM. The TGI [2] was 26.7 µM, the GI50 [3] was 4.21 µM and the TGI [3] was 74.7 µM. The GI50 [4] was > 100 µM, the TGI [4] was > 100 µM and the GI50 [6] was 11.4 µM. It also gave a TGI [6] of 26.1 µM, a GI50 [7] of 1.13 µM and a TGI [7] of 8.37 µM. For the same molecule, the GI50 [8] was 10.7 µM, the TGI [8] was 23 µM and the GI50 [9] was 14.9 µM. It also gave a TGI [9] of 29.4 µM.
In the case of COC(=O)C1=Cc2cc3c(cc2[C@H](c2ccc4c(c2)OCO4)C1C(=O)OC)OCO3 (stereo partly drawn), the TGI [1] is reported as > 100 µM, the TGI [10] is reported as > 100 µM and the TGI [3] is reported as > 100 µM. The TGI [4] was > 100 µM, the TGI [5] was > 100 µM and the TGI [6] was > 100 µM. The TGI [7] was > 100 µM, the TGI [8] was > 100 µM and the TGI [9] was > 100 µM.
In the case of Cc1cc2c(-c3nc4ccccc4[nH]3)c(O)c(O)cc2c(O)c1-c1c(C)cc2c(-c3nc4ccccc4[nH]3)c(O)c(O)cc2c1O, the GI50 [1] is reported as 0.042 µM, the TGI [1] is reported as 0.218 µM and the GI50 [10] is reported as 0.0389 µM. It also gave a TGI [10] of 2.11 µM, a GI50 [2] of 0.0993 µM and a TGI [2] of 10.6 µM. For the same molecule, the GI50 [4] was 0.0312 µM, the TGI [4] was 3.72 µM and the GI50 [5] was 0.0217 µM. For the same molecule, the TGI [5] was > 24.4 µM, the GI50 [6] was 0.0411 µM and the TGI [6] was 15.1 µM. It also gave a GI50 [7] of 0.0232 µM, a TGI [7] of 1.54 µM and a GI50 [8] of 0.0384 µM. The TGI [8] was 16.8 µM, the GI50 [9] was 0.0664 µM and the TGI [9] was > 50 µM.
CN1CCC(O)C(CNC23CC4CC(CC(C4)C2)C3)C1 (stereo not drawn) was tested, and the TGI [1] was > 100 µM, the TGI [2] was > 100 µM and the TGI [3] was > 100 µM. For the same molecule, the TGI [4] was > 100 µM, the TGI [5] was > 100 µM and the TGI [7] was > 100 µM. The TGI [8] was > 100 µM and the TGI [9] was > 100 µM.
With Cc1c(C(=O)/C=C/c2ccco2)[n+](=O)c2ccccc2n1[O-] the TGI [1] was > 100 µM, the TGI [10] was > 100 µM and the TGI [3] was > 100 µM. For the same molecule, the TGI [4] was > 100 µM, the TGI [5] was > 100 µM and the TGI [6] was > 100 µM. For the same molecule, the TGI [7] was > 100 µM and the TGI [9] was > 100 µM.
COc1ccc(C(=O)O/N=C2\CCCC\C2=C/c2ccccc2)cc1 was tested, and the TGI [1] was > 100 µM, the TGI [10] was 62 µM and the TGI [3] was > 100 µM. For the same molecule, the TGI [4] was > 100 µM, the TGI [5] was > 100 µM and the TGI [8] was 95.8 µM. For the same molecule, the TGI [9] was > 100 µM.

Reference: PubChem BioAssay (NCI)
